Here are results for three compounds from publication PMC9867347, “An Acid-Sensitive Bone Targeting Delivery System Carrying Acacetin Prevents Osteoporosis in Ovariectomized Mice” (Pharmaceuticals, 2022).

One series has as its system BMMs. As to the kind of experiment: Cytotoxicity assay (CCK-8). It counts as cell-based, C57BL/6J mice. The settings on record: 48 h and 96 h, CCK-8, n = 6. On the procedure: In brief, the hind limbs of C57BL/6J mice were used to isolate bone marrow cells and cultured in α-MEM containing 10% FBS and 1% penicillin-streptomycin for one day to generate BMMs as described previously; 25 ng/mL […] Systems, Minneapolis, MN, USA) and 50 ng/mL […] Systems, Minneapolis, MN, USA) were used for the preparation of osteoclasts. […] The medium was changed every 2 days. After 48 h and 96 h of culture, CCK8 reagent (10 μL/well, Dojindo, Kumamoto, Japan) was added to each well. Then, the cells were incubated in darkness at 37 °C for 2 h. The absorbance was recorded using a microplate reader (Thermo Fisher Scientific, Waltham, MA, USA) at 450 nm.

The nature of series [1]: Hydroxyapatite (HA) binding assay. The settings on record: 800 μM, 4 mM sodium phosphate, 150 mM sodium chloride, pH 7.4, 15 mg HA, 37 °C, 0-80 min, HPLC. Here is the method:
Acacetin-EMCH-D6 and acacetin were dissolved, respectively, in a buffer containing 4 mM sodium phosphate and 150 mM sodium chloride (pH = 7.4), to a final concentration of 800 μM; 15 mg of HA was added and incubated in a 37 °C water bath; 20 μL aliquots were taken after 0, 10, 20, 40, and 80 min and quantified by HPLC.

For series [2] the following is noted: plasma, after intravenous administration; cited from earlier work. From the text:
(§1) Osteoporosis following the estrogen withdrawal of menopause is a serious global clinical problem with a significant increase in the risk of fractures. Supplementation of estrogen is not recommended for the long-term treatment of postmenopausal bone loss because of the increased risk of breast cancers and cardiovascular events. Pure compounds isolated from natural products are emerging as potential therapeutics for postmenopausal osteoporosis. Acacetin is a di-hydroxy and mono-methoxy flavone widely distributed in various plants including the Acacia tree, black locust, and ...

The test system of series [3] is ovariectomized (OVX) mice. The settings on record: 20 mg/kg/day for 8 weeks; ref 11 (Lin et al.); cited from earlier work.
Excerpt: as §1

Series [4] relates to mRNA expression of TRAP, NFATc1, and CTSK. Description: RT-PCR of osteoclast genes. It counts as cell-based, C57BL/6J mice. Particulars: BMMs, RANKL and M-CSF, 12.5, 25 μM, 3 days, n = 3. On the procedure: The total RNA was extracted from cells or tissues using TRIzol reagent (Thermo Fisher Scientific, Waltham, MA, USA) according to the manufacturer’s instructions. PrimeScript^TM RT Master Mix (RR036Q, Takara, San Jose, CA, USA) was used to reverse transcribe 1 μg of total RNA extracted into complementary DNA (cDNA) for subsequent RT-PCR reactions using qTOWER real-time PCR thermal cycler (Analytik Jena, Jena, Germany).

A further series has as its system PI3K/AKT/mTOR pathway. Description: Western blotting, PI3K/AKT/mTOR phosphorylation. It counts as cell-based, C57BL/6J mice. Particulars: BMMs, RANKL and M-CSF, acacetin 25 μM, 6 h, n = 3. On the procedure: (§2) RIPA lysate (50 × protease inhibitor, 50 × phosphatase inhibitor) was used to extract total protein from the cells. Then, 20 μg protein or protein marker per lane (PageRuler ™ (ThermoFisher Scientific, Waltham, MA, USA) Prestained Protein Ladder 10kD-180KD or HiMark™ (ThermoFisher Scientific, Waltham, MA, USA) Pre-stained Protein Standard 31 kd-460 kd) was loaded onto an SDS gel (30% Acrylamide, 1.5 M Tris-HCl, 10% SDS, 10% Ammonium persulfate and TEMED) and subjected to electrophoresis and transferred to a polyvinylidene fluoride membrane. The membrane was blocked with 5% BSA for 4 h and incubated with the specific primary antibody overnight at 4 °C. Then, the membrane was incubated with a secondary antibody (IRDye) for 1 h at room temperature. Bio-Rad ChemiDoc MP imaging system (Bio-Rad Laboratories, Hercules, CA, USA) was used to visualize protein bands and ImageJ software was used to calculate relative protein expression based on grayscale blots.
(§3) Antibodies including p-AKT (Ser473; #4060), AKT (#4691), LC3A/B Antibody (#4108), p-mTOR (Ser2448; #5536), mTOR (#2983), c-Fos (#2250), NFATc1 (#8032), p-PI3K (#4228), PI3K (#4249), and GAPDH (#5174) were purchased from Cell Signalling Technology (Denver, MA, USA).
For orientation: In western blotting, separated proteins are transferred to a membrane and probed.

Series [5] relates to BMMs stimulated with RANKL and M-CSF. Description: Bone resorption assay (Osteo Assay Surface plate). It counts as cell-based, C57BL/6J mice. Here is the method:
In brief, the hind limbs of C57BL/6J mice were used to isolate bone marrow cells and cultured in α-MEM containing 10% FBS and 1% penicillin-streptomycin for one day to generate BMMs as described previously; 25 ng/mL M-CSF (416-ML-010/CF, R&D Systems, Minneapolis, MN, USA) and 50 ng/mL RANKL (462-TR-010/CF, R&D Systems, Minneapolis, MN, USA) were used for the preparation of osteoclasts.
Assays for bone resorption were performed using Corning Osteo Assay Surface plate (Sigma-Aldrich, Hongkong, China). We analyzed bone resorption pits with a light microscope and quantified pits area using Image J software (NIH, Bethesda, MD, USA).

Series [6] has the same test system. As to the kind of experiment: TRAP staining, osteoclast differentiation. It counts as cell-based, C57BL/6J mice. The settings on record: 7 days. On the procedure:
In brief, the hind limbs of C57BL/6J mice were used to isolate bone marrow cells and cultured in α-MEM containing 10% FBS and 1% penicillin-streptomycin for one day to generate BMMs as described previously; 25 ng/mL […] Systems, Minneapolis, MN, USA) and 50 ng/mL […] Systems, Minneapolis, MN, USA) were used for the preparation of osteoclasts. […] TRAP-positive multinucleated osteoclasts (≥3 nuclei) were counted using a TRAP kit (Zhejiang Zhuoteng Biological, Shaoxing, China) according to the manufacturer's instructions. BMMs were induced by RANKL (50 ng/mL) and M-CSF (25 ng/mL) in the presence of acacetin (25 μM) and rapamycin (50 nmol/L) for 7 days. TRAP-positive multinucleated osteoclasts (≥3 nuclei) were counted.

The test system of a further series is LC3II. Description: Western blotting, LC3II (autophagy). Particulars: BMMs, RANKL and M-CSF, 6 h. Format: cell-based, C57BL/6J mice. Here is the method:
as §2, §3

The next series has as its system c-Fos and NFATc1. As to the kind of experiment: Western blotting, c-Fos and NFATc1. It counts as cell-based, C57BL/6J mice. The settings on record: BMMs, RANKL and M-CSF, 3 days. On the procedure:
as §2, §3

A further series relates to OVX mice. Description: OVX mouse model of osteoporosis. It counts as in vivo, C57BL/6J mice. Particulars: for anti-osteoporotic effects (OVX-induced bone loss; BMD and BV/TV, micro-CT of tibia): i.p. 5 mg/kg/3 day for 5 weeks.
For series [7] the following is noted: statement of the design section, reference not given; cited from earlier work. An excerpt: The next step is the identification of bone-targeting peptides. Bone tissue, as a special connective tissue, consists of a variety of cells and intercellular bone matrix, with high inorganic salt content which is mainly composed of HA. In recent years, more and more peptide sequences with excellent bone-targeting ability have been discovered. Compared with bone-targeting small molecules, these peptides have more specific mechanisms, high affinity and low side effects. Considering that acacetin has an excellent inhibitory effect on osteoclasts, we selected […] ...

Setting [8] is: i.p. 17.5 μmol/kg every 3 days for 5 weeks.
Where [9] appears, read: i.p. 17.5 μmol/kg every 3 days for 5 weeks, n = 6.
The mark [10] stands for this setting: acacetin 25 μM and rapamycin 50 nmol/L.
Setting [11] is: Acacetin-EMCH-D6 17.5 μmol/kg and rapamycin 1 mg/kg i.p. every 3 days, 5 weeks, at least in part.
The mark [12] stands for this setting: Acacetin-EMCH-D6 17.5 μmol/kg and rapamycin 1 mg/kg i.p. every 3 days, 5 weeks, proximal tibia.

Ends that are not written are not given here.

Take `COc1ccc(-c2cc(=O)c3c(O)cc(O)cc3o2)cc1` [acacetin]: in the series with BMMs (dose more than 50 μM), the cell viability result was “reduced cell viability”. Besides, the cell viability result in the series with BMMs (dose of 6.25, 12.5, and 25 μM) is recorded as “did not affect cell viability”. The “binding to hydroxyapatite (HA)” value in series [1] was “very weak binding”. Moreover, in [2], the terminal half-life is on record as 1.48 h. Also, in series [3], the “bone loss in ovariectomized (OVX) mice” value is recorded as “protected against bone loss”. Moreover, in [4], the “mRNA expression of CTSK” value is reported as “suppressed”, the “mRNA expression of NFATc1” value is listed as “suppressed” and the “mRNA expression of TRAP” value was “suppressed”. Moreover, in the series on PI3K/AKT/mTOR pathway, the “RANKL+M-CSF-induced reduction of AKT phosphorylation” value is recorded as “reversed”, the “RANKL+M-CSF-induced reduction of PI3K phosphorylation” value was “reversed” and the “RANKL+M-CSF-induced reduction of mTOR phosphorylation” value is recorded as “reversed”. In addition, in series [5] (RANKL 50 ng/mL and M-CSF 25 ng/mL, 12.5, 25 μM added for 3 days after immature osteoclasts formed, n = 3), the “area of bone resorption pits” value is “significantly diminished”. In addition, in series [6] (RANKL 50 ng/mL and M-CSF 25 ng/mL, 12.5, 25 μM, n = 3), the “number of TRAP-positive osteoclasts (nuclei ≥ 3)” value is given as “significantly diminished”. Moreover, the “RANKL+M-CSF-induced increase of LC3II protein levels” value with LC3II (acacetin 25 μM, n = 3) is listed as “reversed”. For the same compound, in the series with c-Fos and NFATc1 (acacetin 25 μM), the “protein expression of NFATc1” value was “downregulated” and the “protein expression of c-Fos” value is “downregulated”. In the series on OVX mice (setting [8]), the “BMD, proximal tibia and L5 vertebra (micro-CT), OVX-induced change” value is “no significant effect”; the “BV/TV, proximal tibia and L5 vertebra (micro-CT), OVX-induced change” value was “no significant effect”; the “Tb.N, proximal tibia and L5 vertebra (micro-CT), OVX-induced change” value was “no significant effect”; the “Tb.Sp, proximal tibia and L5 vertebra (micro-CT), OVX-induced change” value is recorded as “no significant effect”. In addition, the “number of TRAP-positive cells, proximal tibia (OVX-induced increase)” value with OVX mice (setting [8]) is listed as “did not affect the histological changes”. Also, in the series with OVX mice (setting [9]), the “plasma CTX-1 levels” value is reported as “no significant effect”; the “trabecular density and thickness, proximal tibia (H&E staining)” value is listed as “did not affect the histological changes”. For the same compound, the “anti-osteoporotic effects (OVX-induced bone loss; BMD and BV/TV, micro-CT of tibia)” value with OVX mice (n = 6, Figure S1, 5 mg/kg) is recorded as “did not observe its anti-osteoporotic effects”. Moreover, the “anti-osteoporotic effects (OVX-induced bone loss; BMD and BV/TV, micro-CT of tibia)” value with OVX mice (n = 6, Figure S1, listed as Acacetin, 5 mg/kg) is on record as “no effect on OVX-induced bone loss”.
On to `CO[C@H]1C[C@@H]2CC[C@@H](C)[C@@](O)(O2)C(=O)C(=O)N2CCCC[C@H]2C(=O)O[C@H]([C@H](C)C[C@@H]2CC[C@@H](O)[C@H](OC)C2)CC(=O)[C@H](C)/C=C(\C)[C@@H](O)[C@@H](OC)C(=O)[C@H](C)C[C@H](C)/C=C/C=C/C=C/1C` [rapamycin], for which, in series [5] (RANKL and M-CSF, acacetin 25 μM and rapamycin 50 nmol/L, 3 days), the “effect of rapamycin co-treatment on inhibition of bone resorption by acacetin” value is on record as “partly reversed”. In addition, in series [6] (RANKL and M-CSF, acacetin 25 μM and rapamycin 50 nmol/L), the “effect of rapamycin co-treatment on inhibition of osteoclast differentiation by acacetin (TRAP assay)” value is given as “partly reversed”. The “effect of rapamycin co-treatment on inhibition of LC3II protein levels by acacetin” value in the series on LC3II (setting [10]) is on record as “abolished”. Also, in the series with c-Fos and NFATc1 (setting [10]), the “effect of rapamycin co-treatment on downregulation of NFATc1 protein by acacetin” value is “partially reversed” and the “effect of rapamycin co-treatment on downregulation of c-Fos protein by acacetin” value was “partially reversed”. Also, in the series with OVX mice (setting [11]), the “effect of rapamycin co-treatment on BMD augmentation by Acacetin-EMCH-D6” value is on record as “reversed”, the “effect of rapamycin co-treatment on BV/TV augmentation by Acacetin-EMCH-D6” value is reported as “reversed”, the “effect of rapamycin co-treatment on Tb.N augmentation by Acacetin-EMCH-D6” value was “reversed” and the “effect of rapamycin co-treatment on Tb.Sp reduction by Acacetin-EMCH-D6” value is on record as “reversed”. Further, in the series on OVX mice (setting [12]), the “effect of rapamycin co-treatment on reduction of LC3 dots by Acacetin-EMCH-D6” value is recorded as “partly reversed” and the “effect of rapamycin co-treatment on reduction of TRAP-positive osteoclasts by Acacetin-EMCH-D6” value is “partly reversed”.
In the case of “DDDDDD [D6, medium-length polyaspartic acid, bone targeting peptide]”, the HA affinity result in [7] was “comparable to tetracycline and calcein”.
